What was measured:
[1] = test system: Oryza sativa, (L.) Tebonnet; experiment: Rice tolerance to post-transplant applications under flooded paddy conditions (Example 187), ORYSAT (Rice, Tebonnet); conditions: rated three to four weeks after treatment
[2] = test system: Monochoria vaginalis, Presl.; experiment: Preemergence weed control under flooded paddy conditions, MOOVA (Monochoria); format: in vivo; conditions: preemergence, flooded paddy, rated three to four weeks after treatment; note: meaning of each grade not given here
[3] = test system: Sagittaria pygmaea, L.; experiment: Postemergence weed control under flooded paddy conditions, SAGPY (Arrowhead (Pygmaea)); format: in vivo; conditions: rated three to four weeks after treatment
[4] = test system: Cyperus serotinus, Rottb.; experiment: Postemergence weed control under flooded paddy conditions, CYPSE (Flatsedge); format: in vivo; conditions: rated three to four weeks after treatment
[5] = test system: Oryza sativa, (L.) Tebonnet; experiment: Rice tolerance to post-transplant applications under flooded paddy conditions (Example 188), ORYSAT (Rice, Tebonnet); conditions: rated three to four weeks after treatment
[6] = test system: Cyperus iria; experiment: Postemergence weed control under flooded paddy conditions, CYPIR (Rice Flatsedge); format: in vivo; conditions: rated three to four weeks after treatment
[7] = test system: Echinochloa oryzoides (Ard.) Fritsch.; experiment: Postemergence weed control under flooded paddy conditions, ECHORC (Watergrass (Calif.)); format: in vivo; conditions: rated three to four weeks after treatment
[8] = test system: Cyperus iria; experiment: Preemergence weed control under flooded paddy conditions, CYPIR (Rice Flatsedge); format: in vivo; conditions: preemergence, flooded paddy, rated three to four weeks after treatment; note: meaning of each grade not given here
[9] = test system: Sagittaria pygmaea, L.; experiment: Preemergence weed control under flooded paddy conditions, SAGPY (Arrowhead (Pygmaea)); format: in vivo; conditions: preemergence, flooded paddy, rated three to four weeks after treatment; note: meaning of each grade not given here
[10] = test system: Monochoria vaginalis, Presl.; experiment: Postemergence weed control under flooded paddy conditions, MOOVA (Monochoria); format: in vivo; conditions: rated three to four weeks after treatment
[11] = test system: Echinochloa oryzoides (Ard.) Fritsch.; experiment: Preemergence weed control under flooded paddy conditions, ECHORC (Watergrass (Calif.)); format: in vivo; conditions: preemergence, flooded paddy, rated three to four weeks after treatment; note: meaning of each grade not given here
[12] = test system: Cyperus serotinus, Rottb.; experiment: Preemergence weed control under flooded paddy conditions, CYPSE (Flatsedge); format: in vivo; conditions: preemergence, rated three to four weeks after treatment; note: meaning of each grade not given here

Cc1cc(O)c(-c2nsc3ccc(-n4c(=O)cc(C(F)(F)F)n(C)c4=O)cc23)cc1C [Example 11, 3-[3-(6-Hydroxy-3,4-xylyl)-1,2-benzisothiazol-5-yl]-1-methyl-6-(trifluoromethyl)-2,4(1H,3H)-pyrimidinedione]
3.0: herbicidal effect rating, ORYSAT (rice tolerance) ([1]; 0.2500 kg/ha) | herbicidal effect rating, ORYSAT (rice tolerance) ([1]; 0.5000 kg/ha)
9.0: herbicidal effect rating, MOOVA ([2]; 0.0625 kg/ha) | herbicidal effect rating, MOOVA ([2]; 0.1250 kg/ha) | herbicidal effect rating, MOOVA ([2]; 0.2500 kg/ha) | herbicidal effect rating, MOOVA ([2]; 0.5000 kg/ha) | herbicidal effect rating, CYPIR ([6]; Rate 0.0625 kg/ha) | herbicidal effect rating, CYPIR ([6]; Rate 0.1250 kg/ha) | herbicidal effect rating, CYPIR ([6]; Rate 0.2500 kg/ha) | herbicidal effect rating, CYPIR ([6]; Rate 0.5000 kg/ha) | herbicidal effect rating, CYPIR ([8]; 0.0625 kg/ha) | herbicidal effect rating, CYPIR ([8]; 0.1250 kg/ha) | herbicidal effect rating, CYPIR ([8]; 0.2500 kg/ha) | herbicidal effect rating, CYPIR ([8]; 0.5000 kg/ha) | herbicidal effect rating, SAGPY ([9]; 0.5000 kg/ha) | herbicidal effect rating, MOOVA ([10]; Rate 0.0313 kg/ha) | herbicidal effect rating, MOOVA ([10]; Rate 0.0625 kg/ha) | herbicidal effect rating, MOOVA ([10]; Rate 0.1250 kg/ha) | herbicidal effect rating, MOOVA ([10]; Rate 0.2500 kg/ha) | herbicidal effect rating, MOOVA ([10]; Rate 0.5000 kg/ha) | herbicidal effect rating, ECHORC ([11]; 0.5000 kg/ha)
0.0: herbicidal effect rating, SAGPY ([3]; Rate 0.0313 kg/ha) | herbicidal effect rating, SAGPY ([3]; Rate 0.0625 kg/ha) | herbicidal effect rating, SAGPY ([3]; Rate 0.1250 kg/ha) | herbicidal effect rating, CYPSE ([4]; Rate 0.0313 kg/ha) | herbicidal effect rating, CYPSE ([4]; Rate 0.0625 kg/ha) | herbicidal effect rating, CYPSE ([4]; Rate 0.1250 kg/ha) | herbicidal effect rating, CYPSE ([4]; Rate 0.2500 kg/ha) | herbicidal effect rating, CYPSE ([4]; Rate 0.5000 kg/ha) | herbicidal effect rating, ORYSAT (rice tolerance) ([5]; Rate 0.0313 kg/ha) | herbicidal effect rating, ORYSAT (rice tolerance) ([5]; Rate 0.0625 kg/ha) | herbicidal effect rating, ORYSAT (rice tolerance) ([5]; Rate 0.1250 kg/ha) | herbicidal effect rating, ECHORC ([7]; Rate 0.0313 kg/ha) | herbicidal effect rating, ECHORC ([7]; Rate 0.0625 kg/ha) | herbicidal effect rating, SAGPY ([9]; 0.0625 kg/ha) | herbicidal effect rating, SAGPY ([9]; 0.1250 kg/ha)
8.0: herbicidal effect rating, CYPIR ([6]; Rate 0.0313 kg/ha) | herbicidal effect rating, ECHORC ([11]; 0.1250 kg/ha) | herbicidal effect rating, ECHORC ([11]; 0.2500 kg/ha)
7.0: herbicidal effect rating, SAGPY ([3]; Rate 0.5000 kg/ha) | herbicidal effect rating, ECHORC ([7]; Rate 0.5000 kg/ha) | herbicidal effect rating, ECHORC ([11]; 0.0625 kg/ha) | herbicidal effect rating, CYPSE ([12]; 0.5000 kg/ha)
2.0: herbicidal effect rating, ORYSAT (rice tolerance) ([1]; 0.0625 kg/ha) | herbicidal effect rating, ORYSAT (rice tolerance) ([1]; 0.1250 kg/ha) | herbicidal effect rating, ECHORC ([7]; Rate 0.1250 kg/ha) | herbicidal effect rating, SAGPY ([9]; 0.2500 kg/ha) | herbicidal effect rating, CYPSE ([12]; 0.0625 kg/ha) | herbicidal effect rating, CYPSE ([12]; 0.1250 kg/ha) | herbicidal effect rating, CYPSE ([12]; 0.2500 kg/ha)
4.0: herbicidal effect rating, SAGPY ([3]; Rate 0.2500 kg/ha) | herbicidal effect rating, ECHORC ([7]; Rate 0.2500 kg/ha)
1.0: herbicidal effect rating, ORYSAT (rice tolerance) ([5]; Rate 0.2500 kg/ha) | herbicidal effect rating, ORYSAT (rice tolerance) ([5]; Rate 0.5000 kg/ha)

COc1ccc(C)cc1-c1nsc2ccc(-n3c(=O)cc(C(F)(F)F)n(C)c3=O)cc12 [Example 1, 3-[3-(6-Methoxy-m-tolyl)-1,2-benzisothiazol-5-yl]-1-methyl-6-(trifluoromethyl)-2,4(1H,3H)-pyrimidinedione]
5.0: herbicidal effect rating, SAGPY ([9]; 0.0625 kg/ha)
4.7: herbicidal effect rating, ORYSAT (rice tolerance) ([1]; 0.0313 kg/ha) | herbicidal effect rating, ORYSAT (rice tolerance) ([1]; 0.0625 kg/ha)
4.0: herbicidal effect rating, ORYSAT (rice tolerance) ([5]; Rate 0.1250 kg/ha) | herbicidal effect rating, CYPIR ([6]; Rate 0.0625 kg/ha)
6.0: herbicidal effect rating, ORYSAT (rice tolerance) ([5]; Rate 0.2500 kg/ha) | herbicidal effect rating, CYPSE ([12]; 0.1250 kg/ha)
4.5: herbicidal effect rating, MOOVA ([10]; Rate 0.1250 kg/ha)
1.0: herbicidal effect rating, SAGPY ([3]; Rate 0.2500 kg/ha) | herbicidal effect rating, CYPSE ([4]; Rate 0.0313 kg/ha) | herbicidal effect rating, CYPSE ([4]; Rate 0.0625 kg/ha) | herbicidal effect rating, ECHORC ([7]; Rate 0.0313 kg/ha) | herbicidal effect rating, MOOVA ([10]; Rate 0.0625 kg/ha)
3.0: herbicidal effect rating, SAGPY ([3]; Rate 0.5000 kg/ha) | herbicidal effect rating, CYPSE ([4]; Rate 0.1250 kg/ha) | herbicidal effect rating, ORYSAT (rice tolerance) ([5]; Rate 0.0313 kg/ha) | herbicidal effect rating, ORYSAT (rice tolerance) ([5]; Rate 0.0625 kg/ha) | herbicidal effect rating, CYPSE ([12]; 0.0625 kg/ha)
6.5: herbicidal effect rating, CYPSE ([4]; Rate 0.5000 kg/ha) | herbicidal effect rating, ECHORC ([7]; Rate 0.1250 kg/ha) | herbicidal effect rating, MOOVA ([10]; Rate 0.5000 kg/ha)
9.0: herbicidal effect rating, MOOVA ([2]; 0.0313 kg/ha) | herbicidal effect rating, MOOVA ([2]; 0.0625 kg/ha) | herbicidal effect rating, MOOVA ([2]; 0.1250 kg/ha) | herbicidal effect rating, MOOVA ([2]; 0.2500 kg/ha) | herbicidal effect rating, MOOVA ([2]; 0.5000 kg/ha) | herbicidal effect rating, CYPIR ([6]; Rate 0.1250 kg/ha) | herbicidal effect rating, CYPIR ([6]; Rate 0.2500 kg/ha) | herbicidal effect rating, CYPIR ([6]; Rate 0.5000 kg/ha) | herbicidal effect rating, ECHORC ([7]; Rate 0.5000 kg/ha) | herbicidal effect rating, CYPIR ([8]; 0.0313 kg/ha) | herbicidal effect rating, CYPIR ([8]; 0.0625 kg/ha) | herbicidal effect rating, CYPIR ([8]; 0.1250 kg/ha) | herbicidal effect rating, CYPIR ([8]; 0.2500 kg/ha) | herbicidal effect rating, CYPIR ([8]; 0.5000 kg/ha) | herbicidal effect rating, ECHORC ([11]; 0.0313 kg/ha) | herbicidal effect rating, ECHORC ([11]; 0.0625 kg/ha) | herbicidal effect rating, ECHORC ([11]; 0.1250 kg/ha) | herbicidal effect rating, ECHORC ([11]; 0.2500 kg/ha) | herbicidal effect rating, ECHORC ([11]; 0.5000 kg/ha) | herbicidal effect rating, CYPSE ([12]; 0.2500 kg/ha)
8.0: herbicidal effect rating, ECHORC ([7]; Rate 0.2500 kg/ha) | herbicidal effect rating, CYPSE ([12]; 0.5000 kg/ha)
5.5: herbicidal effect rating, CYPSE ([4]; Rate 0.2500 kg/ha) | herbicidal effect rating, MOOVA ([10]; Rate 0.2500 kg/ha)
8.3: herbicidal effect rating, SAGPY ([9]; 0.2500 kg/ha)
2.5: herbicidal effect rating, ECHORC ([7]; Rate 0.0625 kg/ha)
1.3: herbicidal effect rating, CYPSE ([12]; 0.0313 kg/ha)
0.0: herbicidal effect rating, SAGPY ([3]; Rate 0.0313 kg/ha) | herbicidal effect rating, SAGPY ([3]; Rate 0.0625 kg/ha) | herbicidal effect rating, SAGPY ([3]; Rate 0.1250 kg/ha) | herbicidal effect rating, CYPIR ([6]; Rate 0.0313 kg/ha) | herbicidal effect rating, MOOVA ([10]; Rate 0.0313 kg/ha)
5.3: herbicidal effect rating, ORYSAT (rice tolerance) ([1]; 0.1250 kg/ha)
8.5: herbicidal effect rating, SAGPY ([9]; 0.5000 kg/ha)
6.7: herbicidal effect rating, SAGPY ([9]; 0.1250 kg/ha)
3.3: herbicidal effect rating, SAGPY ([9]; 0.0313 kg/ha)
7.7: herbicidal effect rating, ORYSAT (rice tolerance) ([1]; 0.2500 kg/ha)
7.0: herbicidal effect rating, ORYSAT (rice tolerance) ([1]; 0.5000 kg/ha) | herbicidal effect rating, ORYSAT (rice tolerance) ([5]; Rate 0.5000 kg/ha)

Source: patent EP0908457B1, “3-(1,2-benzisothiazol- and isoxazol-5-Y1)-2,4(1H,3H)-pyrimidinedione or thione and 3-(1,2-benzisothiazol- and isoxazol-5-y1)-4(3H)-pyrimidinone or thione herbicidal agents” (BASF AKTIENGESELLSCHAFT, priority 1997, dated 1999)
